Measurements published in ChEMBL document CHEMBL3885881, “DrugMatrix”.

Species on record: Rattus norvegicus
Experiment: DrugMatrix - Regimen: Daily Repeat
Type: toxicity, organism-based, Sprague-Dawley
Design: regimen Daily Repeat, gender Male, age 6-8 weeks
Conditions: in vivo, po, route oral GAVAGE, vehicle 100 % WATER; for ABSOLUTE BASOPHIL / ABSOLUTE EOSINOPHIL / ABSOLUTE LYMPHOCYTE / ABSOLUTE MONOCYTE / ABSOLUTE SEGMENTED NEUTROPHIL / BASOPHIL / EOSINOPHIL / ERYTHROCYTE COUNT / HEMATOCRIT / HEMOGLOBIN / LEUKOCYTE COUNT / LYMPHOCYTE / MEAN CORPUSCULAR HEMOGLOBIN / MEAN CORPUSCULAR HEMOGLOBIN CONCENTRATION / MEAN CORPUSCULAR VOLUME / MONOCYTE / NEUTROPHIL / NUCLEATED RED BLOOD CELLS / PLATELET COUNT: tissue Blood; for ALANINE AMINOTRANSFERASE / ALBUMIN / ALKALINE PHOSPHATASE / ASPARTATE AMINOTRANSFERASE / BLOOD UREA NITROGEN / CARBON DIOXIDE / CHLORIDE / CHOLESTEROL / CREATINE PHOSPHOKINASE / CREATININE / GLUCOSE / LACTATE DEHYDROGENASE / LIPASE / PHOSPHORUS / POTASSIUM / SODIUM / TOTAL BILIRUBIN / TOTAL PROTEIN / URIC ACID: tissue Plasma
[1] = 0 mg/kg, 72 h, dose level Control, time 3 day
[2] = 0 mg/kg, 120 h, dose level Control, time 5 day
[3] = 28 mg/kg, 72 h, dose level Low, time 3 day

## CS(=O)(=O)c1ccc([C@@H](O)[C@@H](CO)NC(=O)C(Cl)Cl)cc1 [THIAMPHENICOL]
[1]
  ABSOLUTE BASOPHIL: 0 CELLS/uL
  ABSOLUTE EOSINOPHIL: 151.33 CELLS/uL
  ABSOLUTE LYMPHOCYTE: 10599.5 CELLS/uL
  ABSOLUTE MONOCYTE: 109.5 CELLS/uL
  ABSOLUTE SEGMENTED NEUTROPHIL: 1139.67 CELLS/uL
  BASOPHIL: 0%
  EOSINOPHIL: 0.83%
  ERYTHROCYTE COUNT: 5.54 x10E6/uL
  HEMATOCRIT: 35.35%
  HEMOGLOBIN: 13.22 G/DL
  LEUKOCYTE COUNT: 12 x10E3/uL
  LYMPHOCYTE: 89%
  MEAN CORPUSCULAR HEMOGLOBIN: 23.88 pg
  MEAN CORPUSCULAR HEMOGLOBIN CONCENTRATION: 37.4 G/DL
  MEAN CORPUSCULAR VOLUME: 63.85 fL
  MONOCYTE: 1%
  NEUTROPHIL: 9.17%
  NUCLEATED RED BLOOD CELLS: 0 /100WBC
  PLATELET COUNT: 1333.33 x10E3/uL
  ALANINE AMINOTRANSFERASE: 53.17 u/L
  ALBUMIN: 4.32 G/DL
  ALKALINE PHOSPHATASE: 404.33 u/L
  ASPARTATE AMINOTRANSFERASE: 83.17 u/L
  BLOOD UREA NITROGEN: 15.67 mg/dL
  CARBON DIOXIDE: 27.33 mmol/L
  CHLORIDE: 101.83 MEQ/L
  CHOLESTEROL: 68.67 mg/dL
  CREATINE PHOSPHOKINASE: 276.17 u/L
  CREATININE: 0.18 mg/dL
  GLUCOSE: 163.5 mg/dL
  LACTATE DEHYDROGENASE: 144.67 u/L
  LIPASE: 8.83 u/L
  PHOSPHORUS: 11.72 mg/dL
  POTASSIUM: 5.99 MEQ/L
  SODIUM: 143.57 MEQ/L
  TOTAL BILIRUBIN: 0.2 mg/dL
  TOTAL PROTEIN: 6.1 G/DL
  URIC ACID: 1.38 mg/dL
[2]
  ABSOLUTE BASOPHIL: 0 CELLS/uL
  ABSOLUTE EOSINOPHIL: 248.67 CELLS/uL
  ABSOLUTE LYMPHOCYTE: 12977.83 CELLS/uL
  ABSOLUTE MONOCYTE: 19.67 CELLS/uL
  ABSOLUTE SEGMENTED NEUTROPHIL: 1137.17 CELLS/uL
  BASOPHIL: 0%
  EOSINOPHIL: 1.67%
  ERYTHROCYTE COUNT: 5.82 x10E6/uL
  HEMATOCRIT: 36.35%
  HEMOGLOBIN: 13.58 G/DL
  LEUKOCYTE COUNT: 14.38 x10E3/uL
  LYMPHOCYTE: 90.5%
  MEAN CORPUSCULAR HEMOGLOBIN: 23.32 pg
  MEAN CORPUSCULAR HEMOGLOBIN CONCENTRATION: 37.42 G/DL
  MEAN CORPUSCULAR VOLUME: 62.42 fL
  MONOCYTE: 0.17%
  NEUTROPHIL: 7.67%
  NUCLEATED RED BLOOD CELLS: 0 /100WBC
  PLATELET COUNT: 1337.67 x10E3/uL
  ALANINE AMINOTRANSFERASE: 48.5 u/L
  ALBUMIN: 4.32 G/DL
  ALKALINE PHOSPHATASE: 354.33 u/L
  ASPARTATE AMINOTRANSFERASE: 80 u/L
  BLOOD UREA NITROGEN: 16 mg/dL
  CARBON DIOXIDE: 27.33 mmol/L
  CHLORIDE: 100.33 MEQ/L
  CHOLESTEROL: 68 mg/dL
  CREATINE PHOSPHOKINASE: 325.17 u/L
  CREATININE: 0.23 mg/dL
  GLUCOSE: 172 mg/dL
  LACTATE DEHYDROGENASE: 254.83 u/L
  LIPASE: 8.33 u/L
  PHOSPHORUS: 12.17 mg/dL
  POTASSIUM: 6.28 MEQ/L
  SODIUM: 143.57 MEQ/L
  TOTAL BILIRUBIN: 0.18 mg/dL
  TOTAL PROTEIN: 6.12 G/DL
  URIC ACID: 1.78 mg/dL
[3]
  ABSOLUTE BASOPHIL: 0 CELLS/uL
  ABSOLUTE EOSINOPHIL: 49.67 CELLS/uL
  ABSOLUTE LYMPHOCYTE: 5981.33 CELLS/uL
  ABSOLUTE MONOCYTE: 18.33 CELLS/uL
  ABSOLUTE SEGMENTED NEUTROPHIL: 584 CELLS/uL
  BASOPHIL: 0%
  EOSINOPHIL: 0.67%
  ERYTHROCYTE COUNT: 5.43 x10E6/uL
  HEMATOCRIT: 34.57%
  HEMOGLOBIN: 13.07 G/DL
  LEUKOCYTE COUNT: 6.63 x10E3/uL
  LYMPHOCYTE: 90%
  MEAN CORPUSCULAR HEMOGLOBIN: 24 pg
  MEAN CORPUSCULAR HEMOGLOBIN CONCENTRATION: 37.8 G/DL
  MEAN CORPUSCULAR VOLUME: 63.6 fL
  MONOCYTE: 0.33%
  NEUTROPHIL: 9%
  NUCLEATED RED BLOOD CELLS: 0 /100WBC
  PLATELET COUNT: 1197 x10E3/uL
  ALANINE AMINOTRANSFERASE: 57.33 u/L
  ALBUMIN: 4.33 G/DL
  ALKALINE PHOSPHATASE: 344.67 u/L
  ASPARTATE AMINOTRANSFERASE: 83 u/L
  BLOOD UREA NITROGEN: 16 mg/dL
  CARBON DIOXIDE: 29 mmol/L
  CHLORIDE: 102.33 MEQ/L
  CHOLESTEROL: 74.33 mg/dL
  CREATINE PHOSPHOKINASE: 180 u/L
  CREATININE: 0.21 mg/dL
  GLUCOSE: 145.33 mg/dL
  LACTATE DEHYDROGENASE: 123 u/L
  LIPASE: 8.33 u/L
  PHOSPHORUS: 13.03 mg/dL
  POTASSIUM: 6.66 MEQ/L
  SODIUM: 147.17 MEQ/L
  TOTAL BILIRUBIN: 0.17 mg/dL
  TOTAL PROTEIN: 6.53 G/DL
  URIC ACID: 1.33 mg/dL
